Data taken from patent publication US12421207B2 (CMG Pharmaceutical Co., Ltd., priority 2022, dated 2025).
Where two headings read alike, the source gives them in different places.

What was measured:
[1] = test system: HCC827/OR cells; test: Cell viability assay (CellTiter-Glo 2.0), osimertinib-resistant HCC827/OR cells; type: cell-based, human; details: Homo sapiens, HCC827, 72 h drug treatment, read-out: Relative cell viability, IC50 HCC827OR
Text: (§1) To explore c-MET and AXL mechanisms of EGFR TKI resistance, resistant cells of the EGFR TKI hypersensitive EGFR exon 19 mutant NSCLC cell line, HCC827 and PC9 were generated by exposing these cells to increasing concentrations of EGFR TKI for over 3 months.
(§2) Gefitinib-resistant cells were referred to as HCC827/GR. […] Osimertinib-resistant cells were referred to as HCC827/OR.

[2] = test system: HCC827/ER cells; test: Cell viability assay (CellTiter-Glo 2.0), erlotinib-resistant HCC827/ER cells; type: cell-based, human; details: Homo sapiens, HCC827ER, read-out: Relative cell viability
Text: as §1, §2

[3] = test system: PC9/ER cells; test: Cell viability assay (CellTiter-Glo 2.0), erlotinib-resistant PC9/ER cells; type: cell-based; details: Homo sapiens, PC-9/ER, 72 h drug treatment, read-out: Relative cell viability, IC50 PC9ER
Text: as §1, §2

[4] = test system: HCC827/GR cells; test: Cell viability assay (CellTiter-Glo 2.0), gefitinib-resistant HCC827/GR cells; type: cell-based, human; details: Homo sapiens, HCC827, 72 h drug treatment, read-out: Relative cell viability, IC50 HCC827GR
Text: as §1
The human cell line HCC827 was purchased from the American Type Culture Collection (Manassas, VA), and the PC9 cell line was obtained from RIKEN Cell Bank (Ibaraki, Japan). […] Gefitinib-resistant cells were referred to as HCC827/GR. […] Osimertinib-resistant cells were referred to as HCC827/OR.
(§3) Cell viability assays were carried out by plating 1,000 cells per well of HCC827 or PC9 resistant cells, respectively, into white transparent-bottom 384-well plates. The cells were treated with each TKI across a 10-dose range from 1 nM to 10,000 nM. After 72 h of drug treatment, cell viability was measured using the CellTiter-Glo 2.0 assay (Promega, Madison, WI).
as §3

[5] = Table 2, EGFR TKI resistant cells, combination with EGFR TKI
[6] = Table 2, 72 h drug treatment, EGFR TKI resistant cells, combination with EGFR TKI
[7] = Table 4, combinations of EGFR TKIs and inhibitor of Formula (I)
[8] = Table 4, 72 h drug treatment, combinations of EGFR TKIs and inhibitor of Formula (I)

Row | IC50 [1, 5] | IC50 [2, 6] | IC50 [3, 5] | IC50 [4, 5] | IC50 [1, 7] | IC50 [2, 8] | IC50 [3, 7] | IC50 [4, 7] | Structure (SMILES)
1 | < 100 nM | < 100 nM | < 100 nM | < 10 nM | – | – | – | – | CC(C)n1cc(C(=O)Nc2ccc(Oc3ccnc(N)c3-c3ccccc3)c(F)c2)c(=O)n(-c2ccc(F)cc2)c1=O [Example 22, N-(4-(2-amino-3-phenylpyridin-4-yloxy)-3-fluorophenyl)-3-(4-fluorophenyl)-1-isopropyl-2,4-dioxo-1,2,3,4-tetrahydropyrimidine-5-carboxamide]
2 | < 10 nM | < 100 nM | < 10 nM | < 100 nM | – | – | – | – | CC(C)n1cc(C(=O)Nc2ccc(Oc3ccnc(N)c3C#CC3CCN(C)CC3)c(F)c2)c(=O)n(-c2ccc(F)cc2)c1=O [Example 23, N-(4-(2-amino-3-((1-methylpiperidin-4-yl)ethynyl)pyridin-4-yloxy)-3-fluorophenyl)-3-(4-fluorophenyl)-1-isopropyl-2,4-dioxo-1,2,3,4-tetrahydropyrimidine-5-carboxamide]
3 | < 10 nM | < 10 nM | < 10 nM | < 10 nM | – | – | – | – | CC(C)n1cc(C(=O)Nc2ccc(Oc3ccnc(N)c3C#CCN3CCOCC3)c(F)c2)c(=O)n(-c2ccc(F)cc2)c1=O [Example 24, N-(4-(2-amino-3-(3-morpholinoprop-1-ynyl)pyridin-4-yloxy)-3-fluorophenyl)-3-(4-fluorophenyl)-1-isopropyl-2,4-dioxo-1,2,3,4-tetrahydropyrimidine-5-carboxamide]
4 | < 10 nM | < 10 nM | < 10 nM | < 10 nM | – | – | – | – | CC(C)n1cc(C(=O)Nc2ccc(Oc3ccnc(N)c3C#CC(C)(C)N3CCOCC3)c(F)c2)c(=O)n(-c2ccc(F)cc2)c1=O [Example 25, N-(4-(2-amino-3-(3-methyl-3-morpholinobut-1-ynyl)pyridin-4-yloxy)-3-fluorophenyl)-3-(4-fluorophenyl)-1-isopropyl-2,4-dioxo-1,2,3,4-tetrahydropyrimidine-5-carboxamide]
5 | < 10 nM | < 10 nM | < 1000 nM | < 100 nM | – | – | – | – | CC(C)n1cc(C(=O)Nc2ccc(Oc3ccnc(N)c3C#CCN3CCN(C)CC3)c(F)c2)c(=O)n(-c2ccc(F)cc2)c1=O [Example 26, N-(4-(2-amino-3-(3-(4-methylpiperazin-1-yl)prop-1-ynyl)pyridine-4-yloxy)-3-fluorophenyl)-3-(4-fluorophenyl)-1-isopropyl-2,4-dioxo-1,2,3,4-tetrahydropyrimidine-5-carboxamide]
6 | < 10 nM | < 10 nM | < 10 nM | < 10 nM | – | – | – | – | CC(C)n1cc(C(=O)Nc2ccc(Oc3ccnc(N)c3C#CCC3CCNCC3)c(F)c2)c(=O)n(-c2ccc(F)cc2)c1=O [Example 27, N-(4-(2-amino-3-(3-(piperidin-4-yl)prop-1-ynyl)pyridin-4-yloxy)-3-fluorophenyl)-3-(4-fluorophenyl)-1-isopropyl-2,4-dioxo-1,2,3,4-tetrahydropyrimidine-5-carboxamide]
7 | < 10 nM | < 10 nM | < 10 nM | < 10 nM | – | – | – | – | COCCN1CCC(CC#Cc2c(Oc3ccc(NC(=O)c4cn(C(C)C)c(=O)n(-c5ccc(F)cc5)c4=O)cc3F)ccnc2N)CC1 [Example 28, N-(4-(2-amino-3-(3-(1-(2-methoxyethyl)piperidin-4-yl)prop-1-ynyl)pyridin-4-yloxy)-3-fluorophenyl)-3-(4-fluorophenyl)-1-isopropyl-2,4-dioxo-1,2,3,4-tetrahydropyrimidine-5-carboxamide]
8 | < 10 nM | < 10 nM | < 10 nM | < 10 nM | – | – | – | – | CC(C)N1CCC(CC#Cc2c(Oc3ccc(NC(=O)c4cn(C(C)C)c(=O)n(-c5ccc(F)cc5)c4=O)cc3F)ccnc2N)CC1 [Example 29, N-(4-(2-amino-3-(3-(1-isopropylpiperidin-4-yl)prop-1-ynyl)pyridin-4-yloxy)-3-fluorophenyl)-3-(4-fluorophenyl)-1-isopropyl-2,4-dioxo-1,2,3,4-tetrahydropyrimidine-5-carboxmide]
9 | – | – | – | – | < 1000 nM | < 1000 nM | < 1000 nM | < 1000 nM | CN(C)C(=O)Cn1cc(C(=O)Nc2ccc(Oc3ccnc(N)c3C#CC(C)(C)N3CCOCC3)c(F)c2)c(=O)n(-c2ccc(F)cc2)c1=O [Example 33, N-(4-((2-amino-3-(3-methyl-3-morpholinobut-1-yn-1-yl)pyridin-4-yl)oxy)-3-fluorophenyl)-1-(2-(dimethylamino)-2-oxoethyl)-3-(4-fluorophenyl)-2,4-dioxo-1,2,3,4-tetrahydropyrimidine-5-carboxamide]
10 | – | – | – | – | < 10000 nM | < 1000 nM | < 10000 nM | < 1000 nM | CN(C)C(=O)Cn1cc(C(=O)Nc2ccc(Oc3ccnc(N)c3C#CCN3CCOCC3)c(F)c2)c(=O)n(-c2ccc(F)cc2)c1=O [Example 34, N-(4-((2-amino-3-(3-morpholinoprop-1-yn-1-yl)pyridin-4-yl)oxy)-3-fluorophenyl)-1-(2-(dimethylamino)-2-oxoethyl)-3-(4-fluorophenyl)-2,4-dioxo-1,2,3,4-tetrahydropyrimidine-5-carboxamide]
11 | – | – | – | – | < 10000 nM | < 10000 nM | > 10000 nM | > 10000 nM | CN(C)C(=O)Cn1cc(C(=O)Nc2ccc(Oc3ccnc(N)c3C#CC(C)(C)N3CCNCC3)c(F)c2)c(=O)n(-c2ccc(F)cc2)c1=O [Example 35, N-(4-((2-amino-3-(3-methyl-3-(piperazin-1-yl)but-1-yn-1-yl)pyridin-4-yl)oxy)-3-fluorophenyl)-1-(2-(dimethylamino)-2-oxoethyl)-3-(4-fluorophenyl)-2,4-dioxo-1,2,3,4-tetrahydropyrimidine-5-carboxamide]
12 | – | – | – | – | < 10000 nM | < 10000 nM | < 10000 nM | < 10000 nM | CN1CCN(C(C)(C)C#Cc2c(Oc3ccc(NC(=O)c4cn(CC(=O)N(C)C)c(=O)n(-c5ccc(F)cc5)c4=O)cc3F)ccnc2N)CC1 [Example 36, N-(4-((2-amino-3-(3-methyl-3-(4-methylpiperazin-1-yl)but-1-yn-1-yl)pyridin-4-yl)oxy)-3-fluorophenyl)-1-(2-(dimethylamino)-2-oxoethyl)-3-(4-fluorophenyl)-2,4-dioxo-1,2,3,4-tetrahydropyrimidine-5-carboxamide]
13 | – | – | – | – | < 10000 nM | < 10000 nM | < 10000 nM | < 10000 nM | CN1CCC(CC#Cc2c(Oc3ccc(NC(=O)c4cn(CC(=O)N(C)C)c(=O)n(-c5ccc(F)cc5)c4=O)cc3F)ccnc2N)CC1 [Example 37, N-(4-((2-amino-3-(3-(1-methylpiperidin-4-yl)prop-1-yn-1-yl)pyridin-4-yl)oxy)-3-fluorophenyl)-1-(2-(dimethylamino)-2-oxoethyl)-3-(4-fluorophenyl)-2,4-dioxo-1,2,3,4-tetrahydropyrimidine-5-carboxamide]
14 | – | – | – | – | < 10000 nM | < 10000 nM | < 10000 nM | < 10000 nM | CN(C)C(=O)Cn1cc(C(=O)Nc2ccc(Oc3ccnc(N)c3C#CCC3CCNCC3)c(F)c2)c(=O)n(-c2ccc(F)cc2)c1=O [Example 38, N-(4-((2-amino-3-(3-(piperidin-4-yl)prop-1-yn-1-yl)pyridin-4-yl)oxy)-3-fluorophenyl)-1-(2-(dimethylamino)-2-oxoethyl)-3-(4-fluorophenyl)-2,4-dioxo-1,2,3,4-tetrahydropyrimidine-5-carboxamide]
